Legend:
rice, transplanted = experiment: Test F flood (paddy) test; assay type: in vivo, Oryza sativa cv. Japonica—M202; conditions: 21 d, scale 0-100
Text: Three plastic pots (ca. 16-cm diameter) per rate were partially filled with sterilized Tama silt loam soil comprising a 35:50:15 ratio of sand, silt and clay and 2.6% organic matter. Separate plantings for each of the three pots were as follows. Seeds from the U.S. of monochoria (Monochoria vaginalis), sedge, umbrella (small-flower umbrella sedge, Cyperus difformis), bulrush, […] bulrush, Scirpus juncoides), and […] (purple […] coccinea), were planted into one 16-cm pot for each rate. Seeds from the U.S. of flatsedge, rice (rice flatsedge, Cyperus iria), sprangletop, Brdd. (bearded sprangletop, Leptochloa fascicularis), one stand of 9 or 10 water seeded rice seedlings (Rice, W.S. Jap, Oryza sativa cv. 'Japonica-[…]' or Rice, W.S. Ind, 'Indica'), and two stands of 3 or 4 seedlings of rice, transplanted (transplanted rice, Oryza sativa cv. 'Japonica-[…]') were planted into one 16-cm pot for each rate. Seeds from the U.S. of barnyardgrass (Echinochloa crus-galli), […] (common […], Alisma plantago-aquatica), and watergrass, late (late watergrass, Echinochloa oryzicola) were planted into one 16-cm pot for each rate. Plantings were sequential so that crop and weed species were at the 2.0 to 2.5-leaf stage at time of treatment. Potted plants were grown in a greenhouse with day/night temperature settings of 30/27° C., and supplemental balanced lighting was provided to maintain a 16-h photoperiod. Test pots were maintained in the greenhouse until test completion. At time of treatment, test pots were flooded to 3 cm above the soil surface, treated by application of test compounds directly to the paddy water, and then maintained at that water depth for the duration of the test. Effects of treatments on rice and weeds were visually evaluated by comparison to untreated controls after 21 d. Plant response ratings, summarized in Table F, are based on a scale of 0 to 100 where 0 is no effect and 100 is complete control. A dash (-) response means no test result.

chickweed = experiment: Test D pre-/postemergence herbicide test; assay type: in vivo, Stellaria media; conditions: for Plant response rating: Chickweed, scale 0 to 100
Text: (§1) Seeds of plant species selected from bluegrass (annual bluegrass, Poa annua), blackgrass (Alopecurus myosuroides), canarygrass (littleseed canarygrass, Phalaris minor), chickweed (common chickweed, Stellaria media), galium (catchweed bedstraw, Galium aparine), bromegrass, downy (downy bromegrass, Bromus tectorum), field poppy (Papaver rhoeas), field violet (Viola arvensis), foxtail, green (green foxtail, Setaria viridis), deadnettle (henbit deadnettle, Lamium amplexicaule), ryegrass, Italian (Italian ryegrass, Lolium multiflorum), kochia (Kochia scoparia), lambsquarters (Chenopodium album), oilseed rape (Brassica napus), pigweed (Amaranthus retroflexus), chamomile (scentless chamomile, Matricaria inodora), Russian thistle (Salsola kali), speedwell (bird's-eye speedwell, Veronica persica), barley, spring (spring barley, Hordeum vulgare), wheat, spring (spring wheat, Triticum aestivum), buckwheat, wild (wild buckwheat, Polygonum convolvulus), mustard, wild (wild mustard, Sinapis arvensis), oat, wild (wild oat, Avena fatua), radish, wild (wild radish, Raphanus raphanistrum), […]), barley, winter (winter barley, Hordeum vulgare), and wheat, winter (winter wheat, Triticum aestivum) were planted into a silt loam soil and treated preemergence with test chemicals formulated in a non-phytotoxic solvent mixture which included a surfactant. At the same time, these species were planted in pots containing Redi-Earth® planting medium (Scotts Company, 14111 Scottslawn Road, Marysville, Ohio 43041) comprising spaghnum peat moss, vermiculite, wetting agent and starter nutrients and treated with postemergence applications of the test chemicals formulated in the same manner. Plants ranged in height from 2 to 18 cm (1- to 4-leaf stage). Treated plants and controls were maintained in a controlled growth environment for 7 to 21 days after which time all species were compared to controls and visually evaluated. Plant response ratings, summarized in Table D, are based on a scale of 0 to 100 where 0 is no effect and 100 is complete control. A dash (-) response means no test result.

bromegrass, downy = experiment: Test D pre-/postemergence herbicide test; assay type: in vivo, Bromus tectorum; conditions: for Plant response rating: Bromegrass, Downy, scale 0 to 100; for Plant response rating, Bromegrass, Downy: scale 0 to 100 (0 no effect, 100 complete control)
Text: as §1

mustard, wild = experiment: Test D pre-/postemergence herbicide test; assay type: in vivo, Sinapis arvensis; conditions: for Plant response rating: Mustard, Wild, scale 0 to 100; for Plant response rating, Mustard, Wild: scale 0 to 100 (0 no effect, 100 complete control)
Text: as §1

chamomile = experiment: Test D pre-/postemergence herbicide test; assay type: in vivo, Matricaria inodora; conditions: for Plant response rating: Chamomile, scale 0 to 100; for Plant response rating, Chamomile: scale 0 to 100 (0 no effect, 100 complete control)
Text: as §1

lambsquarters = experiment: Test D pre-/postemergence herbicide test; assay type: in vivo, Chenopodium album; conditions: for Plant response rating: Lambsquarters, scale 0 to 100; for Plant response rating, Lambsquarters: scale 0 to 100 (0 no effect, 100 complete control)
Text: as §1

For `CN1CC(c2ccc(F)cc2)C(C(=O)Nc2cccc(F)c2F)C1=O` (stereo not shown) [Compound 271], the “Plant response rating, Rice, Transplanted” value (from here on “Plant response rating, Rice”) (rice, transplanted; 64 g ai/ha) was 0, the “Plant response rating, Rice” value (rice, transplanted; 125 g ai/ha) was 0 and the “Plant response rating, Rice” value (rice, transplanted; 250 g ai/ha) was 0. For the same molecule, the “Plant response rating, Rice” value (rice, transplanted; 500 g ai/ha) was 15.

`O=C1NCC(c2ccc(F)c(F)c2)C1C(=O)Nc1cccc(F)c1` (racemic) [Compound 12] gave a Plant response rating (chickweed; Postemergence, 16 g ai/ha) of 0, a Plant response rating (chickweed; Postemergence, 31 g ai/ha) of 0 and a Plant response rating (chickweed; Postemergence, 62 g ai/ha) of 0. For the same molecule, the Plant response rating (chickweed; Postemergence, 125 g ai/ha) was 20, the Plant response rating (chickweed; Postemergence, 250 g ai/ha) was 30 and the “Plant response rating, Chickweed” value (chickweed; Preemergence, 62 g ai/ha, scale 0 to 100 (0 no effect, 100 complete control)) was 0. For the same molecule, the Plant response rating (chickweed; Preemergence, 125 g ai/ha) was 0, the Plant response rating (chickweed; Preemergence, 250 g ai/ha) was 0 and the Plant response rating (bromegrass, downy; Postemergence, 16 g ai/ha) was 0. The Plant response rating (bromegrass, downy; Postemergence, 31 g ai/ha) was 0, the Plant response rating (bromegrass, downy; Postemergence, 62 g ai/ha) was 0 and the Plant response rating (bromegrass, downy; Postemergence, 125 g ai/ha) was 0. For the same molecule, the Plant response rating (bromegrass, downy; Postemergence, 250 g ai/ha) was 5, the “Plant response rating, Bromegrass, Downy” value (bromegrass, downy; Preemergence, 31 g ai/ha) was 0 and the “Plant response rating, Bromegrass, Downy” value (bromegrass, downy; Preemergence, 62 g ai/ha) was 0. For the same molecule, the “Plant response rating, Bromegrass, Downy” value (bromegrass, downy; Preemergence, 16 g ai/ha) was 0, the Plant response rating (bromegrass, downy; Preemergence, 125 g ai/ha) was 0 and the Plant response rating (bromegrass, downy; Preemergence, 250 g ai/ha) was 10. For the same molecule, the Plant response rating (mustard, wild; Postemergence, 16 g ai/ha) was 0, the Plant response rating (mustard, wild; Postemergence, 31 g ai/ha) was 10 and the Plant response rating (mustard, wild; Postemergence, 62 g ai/ha) was 40. For the same molecule, the Plant response rating (mustard, wild; Postemergence, 125 g ai/ha) was 100, the “Plant response rating, Mustard, Wild” value (mustard, wild; Preemergence, 31 g ai/ha) was 0 and the “Plant response rating, Mustard, Wild” value (mustard, wild; Preemergence, 62 g ai/ha) was 0. For the same molecule, the “Plant response rating, Mustard, Wild” value (mustard, wild; Preemergence, 16 g ai/ha) was 0, the Plant response rating (mustard, wild; Preemergence, 125 g ai/ha) was 20 and the Plant response rating (mustard, wild; Preemergence, 250 g ai/ha) was 70. It also gave a Plant response rating (chamomile; Postemergence, 16 g ai/ha) of 0, a Plant response rating (chamomile; Postemergence, 31 g ai/ha) of 0 and a Plant response rating (chamomile; Postemergence, 62 g ai/ha) of 0. The Plant response rating (chamomile; Postemergence, 125 g ai/ha) was 0, the Plant response rating (chamomile; Postemergence, 250 g ai/ha) was 0 and the “Plant response rating, Chamomile” value (chamomile; Preemergence, 31 g ai/ha) was 0. For the same molecule, the “Plant response rating, Chamomile” value (chamomile; Preemergence, 62 g ai/ha) was 0, the “Plant response rating, Chamomile” value (chamomile; Preemergence, 16 g ai/ha) was 0 and the Plant response rating (chamomile; Preemergence, 125 g ai/ha) was 0. The Plant response rating (chamomile; Preemergence, 250 g ai/ha) was 20, the Plant response rating (lambsquarters; Postemergence, 16 g ai/ha) was 0 and the Plant response rating (lambsquarters; Postemergence, 31 g ai/ha) was 0. The Plant response rating (lambsquarters; Postemergence, 62 g ai/ha) was 10, the Plant response rating (lambsquarters; Postemergence, 125 g ai/ha) was 10 and the Plant response rating (lambsquarters; Postemergence, 250 g ai/ha) was 25. For the same molecule, the “Plant response rating, Lambsquarters” value (lambsquarters; Preemergence, 31 g ai/ha) was 0, the “Plant response rating, Lambsquarters” value (lambsquarters; Preemergence, 62 g ai/ha) was 0 and the “Plant response rating, Lambsquarters” value (lambsquarters; Preemergence, 16 g ai/ha) was 0. It also gave a Plant response rating (lambsquarters; Preemergence, 125 g ai/ha) of 30 and a Plant response rating (lambsquarters; Preemergence, 250 g ai/ha) of 30.

Molecule `O=C1NCC(c2cc(F)c(F)c(F)c2)C1C(=O)Nc1ccccc1F` (racemic) [Compound 34] has a Plant response rating (chickweed; Postemergence, 16 g ai/ha) of 0, a Plant response rating (chickweed; Postemergence, 31 g ai/ha) of 0 and a Plant response rating (chickweed; Postemergence, 62 g ai/ha) of 0. It also gave a Plant response rating (chickweed; Postemergence, 125 g ai/ha) of 10, a Plant response rating (chickweed; Postemergence, 250 g ai/ha) of 20 and a Plant response rating (bromegrass, downy; Postemergence, 16 g ai/ha) of 0. It also gave a Plant response rating (bromegrass, downy; Postemergence, 31 g ai/ha) of 0, a Plant response rating (bromegrass, downy; Postemergence, 62 g ai/ha) of 0 and a Plant response rating (bromegrass, downy; Postemergence, 125 g ai/ha) of 0. For the same molecule, the Plant response rating (bromegrass, downy; Postemergence, 250 g ai/ha) was 0, the Plant response rating (mustard, wild; Postemergence, 16 g ai/ha) was 0 and the Plant response rating (mustard, wild; Postemergence, 31 g ai/ha) was 0. It also gave a Plant response rating (mustard, wild; Postemergence, 62 g ai/ha) of 0, a Plant response rating (mustard, wild; Postemergence, 125 g ai/ha) of 10 and a Plant response rating (mustard, wild; Postemergence, 250 g ai/ha) of 20. It also gave a Plant response rating (chamomile; Postemergence, 16 g ai/ha) of 0, a Plant response rating (chamomile; Postemergence, 31 g ai/ha) of 0 and a Plant response rating (chamomile; Postemergence, 62 g ai/ha) of 0. For the same molecule, the Plant response rating (chamomile; Postemergence, 125 g ai/ha) was 0, the Plant response rating (chamomile; Postemergence, 250 g ai/ha) was 0 and the Plant response rating (lambsquarters; Postemergence, 16 g ai/ha) was 0. It also gave a Plant response rating (lambsquarters; Postemergence, 31 g ai/ha) of 0, a Plant response rating (lambsquarters; Postemergence, 62 g ai/ha) of 0 and a Plant response rating (lambsquarters; Postemergence, 125 g ai/ha) of 0. It also gave a Plant response rating (lambsquarters; Postemergence, 250 g ai/ha) of 20.

From patent US10294202B2, “Pyrrolidinones as herbicides” (FMC Corporation, priority 2013, dated 2019)
